Tests used:
[1] = The opioid receptor affinity(Ki) was evaluated by competition with [3H]DSLET (delta 2) on guinea pig brain membranes
[2] = The opioid receptor affinity(Ki) was evaluated by competition with [3H]-DPDPE (delta 1) on guinea pig brain membranes

Row | Structure (SMILES) | Ki [1] [nM] | Ki [2] [nM]
1 | O=C(O)C[C@@H](NC(=O)c1cccc2c3c([nH]c12)[C@@H]1Oc2c(O)ccc4c2C12CCN(CC1CC1)C(C4)[C@]2(O)C3)C(=O)O (stereo partly drawn) [2-[22-cyclopropylmethyl-2,16-dihydroxy-(2S,13R)-14-oxa-11,22-diazaheptacyclo[13.9.1.01,13.02,21.04,12.05,10.019,25]pentacosa-4(12),5(10),6,8,15(25),16,18-heptaen-9-ylcarboxamido]-(2R)-butanedioic acid] | 0.41 | 0.14
2 | N=C(N)NCCC[C@@H](NC(=O)c1cccc2c3c([nH]c12)[C@@H]1Oc2c(O)ccc4c2C12CCN(CC1CC1)C(C4)[C@]2(O)C3)C(=O)O (stereo partly drawn) [5-amino(imino)methylamino-2-[22-cyclopropylmethyl-2,16-dihydroxy-(2S,13R)-14-oxa-11,22-diazaheptacyclo[13.9.1.01,13.02,21.04,12.05,10.019,25]pentacosa-4(12),5(10),6,8,15(25),16,18-heptaen-9-ylcarboxamido]-(2R)-pentanoic acid] | 0.083 | 0.16
3 | NCCC[C@@H](NC(=O)c1cccc2c3c([nH]c12)[C@@H]1Oc2c(O)ccc4c2C12CCN(CC1CC1)C(C4)[C@]2(O)C3)C(=O)O (stereo partly drawn) [5-amino-2-[22-cyclopropylmethyl-2,16-dihydroxy-(2S,13R)-14-oxa-11,22-diazaheptacyclo[13.9.1.01,13.02,21.04,12.05,10.019,25]pentacosa-4(12),5(10),6,8,15(25),16,18-heptaen-9-ylcarboxamido]-(2R)-pentanoic acid] | 0.015 | 0.18
4 | NCCCC[C@@H](NC(=O)c1cccc2c3c([nH]c12)[C@@H]1Oc2c(O)ccc4c2C12CCN(CC1CC1)C(C4)[C@]2(O)C3)C(=O)O (stereo partly drawn) [6-amino-2-[22-cyclopropylmethyl-2,16-dihydroxy-(2S,13R)-14-oxa-11,22-diazaheptacyclo[13.9.1.01,13.02,21.04,12.05,10.019,25]pentacosa-4(12),5(10),6,8,15(25),16,18-heptaen-9-ylcarboxamido]-(2R)-hexanoic acid] | 0.75 | 0.3
5 | O=C(O)c1cccc2c3c([nH]c12)[C@@H]1Oc2c(O)ccc4c2C12CCN(CC1CC1)C(C4)[C@]2(O)C3 (stereo partly drawn) [22-cyclopropylmethyl-2,16-dihydroxy-(2S,13R)-14-oxa-11,22-diazaheptacyclo[13.9.1.01,13.02,21.04,12.05,10.019,25]pentacosa-4(12),5(10),6,8,15(25),16,18-heptaene-9-carboxylic acid] | 0.016 | 0.013
6 | O=C(O)CNC(=O)c1cccc2c3c([nH]c12)[C@@H]1Oc2c(O)ccc4c2C12CCN(CC1CC1)C(C4)[C@]2(O)C3 (stereo partly drawn) [32+/-82-[22-cyclopropylmethyl-2,16-dihydroxy-(2S,13R)-14-oxa-11,22-diazaheptacyclo[13.9.1.01,13.02,21.04,12.05,10.019,25]pentacosa-4(12),5(10),6,8,15(25),16,18-heptaen-9-ylcarboxamido]acetic acid] |  | 0.005

From BindingDB's records for doi:10.1021/jm00003a002 (University of Minnesota, 1995)
